Experimental data as given in patent US12357603B2, “Acyl sulfonamides for treating cancer” (Bayer Aktiengesellschaft, priority 2019, dated 2025).

Assays:
ZR-75-1 cells = assay: Proliferation assay ZR-75-1 (Alamar Blue, 144 h); format: cell-based; conditions: Homo sapiens, ZR-75-1, 144 h, arithmetic mean, read-out: ZR75-1 proliferation assay, EC50 [M] (arithmetic mean)
How it was run: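 Alamar Blue fluorescence (590 nm, 2 h reagent step) measured viability after 144 h compound exposure at 37 °C, 5% CO2. Compounds spanned 2.0×10E-5 to 2.0×10E-9 M in 9 dilutions at 0.2% DMSO, in triplicate, added 24 h after plating 3000 cells/well in RPMI 1640 plus 2.5% FBS.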

MDA-MB-436 cells = assay: Proliferation assay MDA-MB-436, negative control cell line (Alamar Blue, 144 h); format: cell-based; conditions: Homo sapiens, MDA-MB-436, 144 h, arithmetic mean
Description: Proliferation Assays for Compound Characterization
For compound characterization cell survival assays were routinely run in two cell lines. ZR-75-1 is a breast carcinoma cell line containing a focal KAT6A amplification and high KAT6A protein expression. Proliferation of this cell line is inhibited upon treatment with KAT6A inhibitors. As a negative control cell line MDA-MB-436 were used. These cells carry a […] deletion of the KAT6A gene, have a low KAT6A protein expression and are not growth inhibited upon treatment with KAT6A inhibitors.
For measurements cell lines were plated at the below indicated concentration per […] in 96-well plates in a humidified incubator at 37° C. and 5% CO2.
MDA-MB-436 (CLS, 300278; breast adenocarcinoma); 3000 cells per well; culture medium: DMEM/Ham's F12 (Biochrom #FG 4815) medium containing 2.5% FBS (Biochrom #S0615).
24 hours later, cells were treated with compounds (stock solution, 10 mM in DMSO) using the HP D300 Digital Dispenser in a concentration range of 2.0×10E-5 M to 2.0×10E-9 M in a single-dot curve with 9 dilutions and a DMSO concentration of 0.2%. Each sample was prepared as triplicate and rim wells were excluded. Plates were incubated at 37° C. and 5% CO2 for 144 h. Cell viability was measured by adding 10 μL of Alamar Blue Reagent (Invitrogen #DAL 1100) and plates were incubated for 2 h at 37° C. and 5% CO2. Fluorescence was measured at 590 nm wavelength with a Tecan Spark or Victor X3 MTP-Reader (PerkinElmer).

[1] = tested on: ESR1 transcription (luciferase signal in MVLN cells); assay: Repression of ESR1 transcription, luciferase reporter in MVLN cells; format: cell-based; conditions: Homo sapiens, MVLN, inhibition of luciferase signal in MVLN cells; arithmetic mean
How it was run: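 Luminescence from an ER-driven Vitellogenin A2 element–luciferase reporter was measured after 24 h of treatment of MVLN cells, in duplicate wells. Alamar Blue (2 h, 530/590 nm) served as a cell-density control.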

[2] = target: Recombinant human His-tagged Kat6a protein (amino acids 194-810) (Homo sapiens (Human), UniProt Q92794); assay: Kat6a activity assay (TR-FRET, acetylation of biotinylated Histone-H4-derived peptide); format: biochemical; conditions: 60 mins at 22° C., read-out: KAT6A-DPF/HAT domain IC50 [mol/l] (arithmetic mean)
How it was run: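 TR-FRET read-out of H4 K8 acetylation, using anti-acetyl-K8 antibody and streptavidin acceptor, after anacardic acid stop; IC50 from four-parameter regression normalized to DMSO. Reaction: recombinant human Kat6a aa 194-810 (insect-cell derived), 220 nM H4 1-24 peptide, 600 nM acetyl-CoA, pH 8, 22 °C, 60 min, compounds 0.01-20 μM.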

Sequence of Recombinant human His-tagged Kat6a protein (amino acids 194-810) (Q92794 194-810): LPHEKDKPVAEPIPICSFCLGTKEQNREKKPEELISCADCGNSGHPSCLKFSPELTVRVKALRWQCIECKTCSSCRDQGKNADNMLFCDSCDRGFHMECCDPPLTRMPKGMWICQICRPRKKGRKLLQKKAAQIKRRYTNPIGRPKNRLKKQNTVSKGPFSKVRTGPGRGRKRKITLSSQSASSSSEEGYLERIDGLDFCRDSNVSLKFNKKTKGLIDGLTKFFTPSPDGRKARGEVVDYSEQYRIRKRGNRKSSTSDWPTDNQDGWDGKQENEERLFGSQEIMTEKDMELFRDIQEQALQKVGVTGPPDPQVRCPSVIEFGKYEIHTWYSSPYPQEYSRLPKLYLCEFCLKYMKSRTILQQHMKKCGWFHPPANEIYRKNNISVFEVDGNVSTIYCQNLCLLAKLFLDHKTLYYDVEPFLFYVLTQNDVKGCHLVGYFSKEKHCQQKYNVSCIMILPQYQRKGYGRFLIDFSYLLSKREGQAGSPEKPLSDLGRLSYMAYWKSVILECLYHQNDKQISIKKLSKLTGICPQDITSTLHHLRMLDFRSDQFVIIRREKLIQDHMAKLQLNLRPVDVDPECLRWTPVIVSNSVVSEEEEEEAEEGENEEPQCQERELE

Row | EC50 (MDA-MB-436 cells) | IC50 [1] | IC50 [2] | Compound | EC50 (ZR-75-1 cells)
1 | > 20000 nM | 891 nM | 1850 nM | CCOc1nccc(C(F)(F)F)c1S(=O)(=O)NC(=O)c1cc2ccc(N(C)C)cc2o1 [Example 120, 6-(Dimethylamino)-N-[2-ethoxy-4-(trifluoromethyl)pyridine-3-sulfonyl]-1-benzofuran-2-carboxamide] | 4.57e-07 M
2 | > 20000 nM | 453 nM | 252 nM | CCOc1c(Cl)cccc1S(=O)(=O)NC(=O)c1cc2ccc(N(C)C)cc2o1 [Example 122, N-(3-Chloro-2-ethoxybenzene-1-sulfonyl)-6-(dimethylamino)-1-benzofuran-2-carboxamide] | 9.44e-07 M
3 | > 20000 nM | 7800 nM | 351 nM | CCOc1ccc(NC(C)=O)cc1S(=O)(=O)NC(=O)c1cc2ccc(N(C)C)cc2o1 [Example 128, N-(5-Acetamido-2-ethoxybenzene-1-sulfonyl)-6-(dimethylamino)-1-benzofuran-2-carboxamide] | 1.49e-06 M
4 | 15100 nM | 4360 nM | 2180 nM | Cc1ccc(S(=O)(=O)NC(=O)c2cc3ccc(N(C)C)cc3o2)c(N)n1 [Example 130, N-(2-Amino-6-methylpyridine-3-sulfonyl)-6-(dimethylamino)-1-benzofuran-2-carboxamide] | 2.93e-06 M
5 | > 20000 nM | 325 nM | 470 nM | CCc1ncnc(OC)c1S(=O)(=O)NC(=O)c1cc2ccc(N(C)C)cc2o1 [Example 131, 6-(Dimethylamino)-N-(4-ethyl-6-methoxypyrimidine-5-sulfonyl)-1-benzofuran-2-carboxamide] | 8.31e-07 M
6 | > 20000 nM | 323 nM | 325 nM | CCCOc1cccc(C)c1S(=O)(=O)NC(=O)c1cc2ccc(N(C)C)cc2o1 [Example 133, 6-(Dimethylamino)-N-(2-methyl-6-propoxybenzene-1-sulfonyl)-1-benzofuran-2-carboxamide] | 4.88e-07 M
7 | > 20000 nM | 15400 nM | 796 nM | CN(C)c1ccc2cc(C(=O)NS(=O)(=O)c3cc(Br)cnc3Cl)oc2c1 [Example 136] | 5.54e-06 M
8 | > 20000 nM | 9650 nM | 5670 nM | COc1cccc(S(C)(=O)=O)c1S(=O)(=O)NC(=O)c1cc2ccc(N(C)C)cc2o1 [Example 140, 6-(Dimethylamino)-N-[2-(methanesulfonyl)-6-methoxybenzene-1-sulfonyl]-1-benzofuran-2-carboxamide] | 7.83e-06 M
9 | > 20000 nM | 1760 nM | 317 nM | COc1cccc(S(=O)(=O)N(C)C)c1S(=O)(=O)NC(=O)c1cc2ccc(N(C)C)cc2o1 [Example 141, 6-(Dimethylamino)-N-[2-(dimethylsulfamoyl)-6-methoxybenzene-1-sulfonyl]-1-benzofuran-2-carboxamide] | 1.92e-06 M
10 | > 20000 nM | 6800 nM | 438 nM | CC(C)Nc1ncc(Br)cc1S(=O)(=O)NC(=O)c1cc2ccc(N(C)C)cc2o1 [Example 145, N-{5-Bromo-2-[(propan-2-yl)amino]pyridine-3-sulfonyl}-6-(dimethylamino)-1-benzofuran-2-carboxamide] | 7.2e-06 M
11 | > 20000 nM | 5160 nM | 266 nM | CN(C)c1ccc2cc(C(=O)NS(=O)(=O)c3cc(Br)cnc3NC3CC3)oc2c1 [Example 146, N-[5-Bromo-2-(cyclopropylamino)pyridine-3-sulfonyl]-6-(dimethylamino)-1-benzofuran-2-carboxamide] | 3.73e-06 M
12 | 10200 nM | 8290 nM | 429 nM | CCCNc1ncc(Br)cc1S(=O)(=O)NC(=O)c1cc2ccc(N(C)C)cc2o1 [Example 150, N-[5-bromo-2-(propylamino)pyridine-3-sulfonyl]-6-(dimethylamino)-1-benzofuran-2-carboxamide] | > 2e-05 M
13 | > 20000 nM | 9850 nM | 234 nM | Cc1cccc(Nc2ccncc2S(=O)(=O)NC(=O)c2cc3ccc(N(C)C)cc3o2)c1 [Example 151, 6-(Dimethylamino)-N-[4-(3-methylanilino)pyridine-3-sulfonyl]-1-benzofuran-2-carboxamide] | 2.87e-06 M
14 | > 20000 nM | 2930 nM | 1400 nM | COc1ccc(S(=O)(=O)NC(=O)c2cc3ccc(N(C)C)cc3o2)cn1 [Example 152, 6-(Dimethylamino)-N-(6-methoxypyridine-3-sulfonyl)-1-benzofuran-2-carboxamide] | 2.16e-06 M
15 | 6310 nM | 150 nM | 56.4 nM | CN(C)c1ccc2cc(C(=O)NS(=O)(=O)c3ccc(N)c4cccnc34)oc2c1 [Example 166, N-(5-Aminoquinoline-8-sulfonyl)-6-(dimethylamino)-1-benzofuran-2-carboxamide] | 1.5e-07 M
16 | > 20000 nM | 9100 nM | 2060 nM | CN(C)c1ccc2cc(C(=O)NS(=O)(=O)c3ccccc3OCCN)oc2c1 [Example 167, N-[2-(2-Aminoethoxy)benzene-1-sulfonyl]-6-(dimethylamino)-1-benzofuran-2-carboxamide hydrogen chloride (1/1)] | 9.52e-06 M
17 | > 20000 nM | 8600 nM | 128 nM | CN(C)c1ccc2cc(C(=O)NS(=O)(=O)c3ccccc3OCCOCCOCCOCCNc3ccc([N+](=O)[O-])c4nonc34)oc2c1 [Example 168, 6-(Dimethylamino)-N-(2-{2-[2-(2-{2-[(7-nitro-2,1,3-benzoxadiazol-4-yl)amino]ethoxy}ethoxy)ethoxy]ethoxy}benzene-1-sulfonyl)-1-benzofuran-2-carboxamide] | 1.24e-05 M
18 | > 20000 nM | 72.3 nM | 54 nM | CCOc1ccc(C(F)(F)F)cc1S(=O)(=O)NC(=O)c1cc2ccc(N(C)C)cc2o1 [Example 172, 6-(Dimethylamino)-N-[2-ethoxy-5-(trifluoromethyl)phenyl]sulfonyl-benzofuran-2-carboxamide] | 8.08e-08 M
19 | > 20000 nM | 67.4 nM | 97.3 nM | CCOc1ccc(F)cc1S(=O)(=O)NC(=O)c1cc2ccc(N(C)C)cc2o1 [Example 173, 6-(Dimethylamino)-N-(2-ethoxy-5-fluoro-phenyl)sulfonyl-benzofuran-2-carboxamide] | 1.1e-07 M
20 | 19500 nM | 34.8 nM | 12.8 nM | CC(C)c1ccc(OCc2ccccc2)c(S(=O)(=O)NC(=O)c2cc3ccc(N(C)C)cc3o2)c1 [Example 176, N-(2-Benzyloxy-5-isopropyl-phenyl)sulfonyl-6-(dimethylamino)benzofuran-2-carboxamide] | 9.71e-08 M
21 | > 20000 nM | 69.6 nM | 11 nM | CC(C)c1ccc(OCC(F)(F)F)c(S(=O)(=O)NC(=O)c2cc3ccc(N(C)C)cc3o2)c1 [Example 178, 6-(Dimethylamino)-N-[5-isopropyl-2-(2,2,2-trifluoroethoxy)phenyl]sulfonyl-benzofuran-2-carboxamide] | 8.65e-08 M
22 | > 20000 nM | 45.5 nM | 15.4 nM | CC(C)Oc1ccc(C(C)(C)C)cc1S(=O)(=O)NC(=O)c1cc2ccc(N(C)C)cc2o1 [Example 183, N-((5-(tert-butyl)-2-isopropoxyphenyl)sulfonyl)-6-(dimethylamino)benzofuran-2-carboxamide] | 7.53e-08 M
23 | > 20000 nM | > 20000 nM | 6640 nM | Cc1ccc2cccc(S(=O)(=O)NC(=O)c3cc4cc(Cl)c(N(C)C)cc4o3)c2n1 [Example 187, 5-Chloro-6-(dimethylamino)-N-((2-methylquinolin-8-yl)sulfonyl)benzofuran-2-carboxamide] | > 2e-05 M
24 | > 20000 nM | > 20000 nM | 10300 nM | CCOc1ccccc1S(=O)(=O)NC(=O)c1cc2cc(Cl)c(N(C)C)cc2o1 [Example 188, 5-Chloro-6-(dimethylamino)-N-((2-ethoxyphenyl)sulfonyl)benzofuran-2-carboxamide] | > 2e-05 M
